According to US11253477B2, “Compositions based on propolis nanocapsules which can be used as carriers for substances of interest, methods for producing same and use thereof” (EMPRESA BRASILEIRA DE PESQUISA AGROPECUÁRIA—EMBRAPA, priority 2010, dated 2022):

Tested on: Staphyloccoccus aureus, strain ATCC23273
Assay: Colony forming units in agar BHI of samples from the bactericidal/bacteriostatic test
Assay type: cell-based, Staphylococcus aureus
Design: key to Colony forming unites (CFU) in agar BHI: i = uncountable
Procedure: The bactericidal/bacteriostatic effect of the propolis nanoparticles, of nanoencapsulated arithromycin in propolis extract and of pure arithromycin was determined in vitro against samples of Staphylocossus aureus (strain ATCC23273) cultivated in Mueller Hinton culture broth, according to Table 3. Since azithromycyn is a bacteriostatic antibiotic, the samples of the different dilutions were used to determine the core of colony forming units (UFC) in agar BHI (brain-heart-infusion), and thereby determine the bactericidal/bacteriostatic effect shown in Table 4.

CC[C@H]1OC(=O)[C@H](C)[C@@H](O[C@H]2C[C@@](C)(OC)[C@@H](O)[C@H](C)O2)[C@H](C)[C@@H](O[C@@H]2O[C@H](C)C[C@H](N(C)C)[C@H]2O)[C@](C)(O)C[C@@H](C)CN(C)[C@H](C)[C@@H](O)[C@]1(C)O [A, azithromycin]
concentration with bactericidal effect on Staphylococcus aureus (from broth test and CFU count): ≥ 128 µg/mL
Colony forming unites (CFU) in agar BHI (origin tube 4): i
Colony forming unites (CFU) in agar BHI (origin tube 8): 30 UFC
Colony forming unites (CFU) in agar BHI (origin tube 16): 3 UFC
Colony forming unites (CFU) in agar BHI (origin tube 32): 1 UFC
Colony forming unites (CFU) in agar BHI (origin tube 64): 1 UFC
Colony forming unites (CFU) in agar BHI (origin tube 128): 0 UFC
Colony forming unites (CFU) in agar BHI (origin tube 512): 0 UFC
Colony forming unites (CFU) in agar BHI (origin tube 526): 0 UFC
